The text below walks through data of the COVID Moonshot data (paper PMC11187573), “Identification of SARS-CoV-2 Mpro inhibitors through deep reinforcement learning for de novo drug design and computational chemistry approaches” (RSC Medicinal Chemistry, 2024).

SMILES strings stand for the structures.

Experiment [1] addresses SARS-CoV-2 Main Protease (SARS-CoV-2) (UniProt P0DTD1).
The target is the same in experiment [2]. As to conditions: for inhibition: 50.0 µM.

What is called inhibition is the change of the read-out against control, counted positive when it falls. By IC50 is commonly meant the concentration at which inhibition is half-maximal. Consider `N#C/C(C(=O)Nc1ccc(F)cc1)=C(/O)c1ccc(Cl)cc1`, for which the inhibition in experiment [1] (50.0 µM) was determined as 22.2%; in experiment [2], 100%. The IC50 in experiment [2] was 0.234 µM.

As to `Cc1ccncc1NC(=O)C[C@H](c1ccccc1)N1CCC(O)CC1` (stereo in doubt), the inhibition in experiment [1] (20.0 µM) is 6.5%; in experiment [1] (50.0 µM), 34.5%. For the same compound, in experiment [2], the IC50 turned out to be 67.5 µM.

Turning to `O=C(Cc1cc(Cl)cc2c1OCC2)Nc1cncc2ccccc12`, the IC50 in experiment [1] is 1.45 µM. In addition, in experiment [2], the IC50 was 0.492 µM and the inhibition was found to be 78.3%.

Take `Cc1cn2c(-c3cccnc3)c(-c3ccc(F)cc3)nc2s1`: the inhibition in experiment [1] (20.0 µM) is -2.02%; in experiment [1] (50.0 µM), 1.34%; in experiment [2] it was 31.5%.

Take `CC(=O)/C(C#N)=C(\O)Nc1ccc(C(F)(F)F)cc1`: the inhibition in experiment [1] (20.0 µM) was -2.89%; in experiment [1] (50.0 µM), -3%; in experiment [2], 22.2%.

Take `Nc1cncc2c1CCCN2C(=O)Cc1cccc(Cl)c1`: the IC50 in experiment [1] amounted to 32.5 µM; in experiment [2] it was 54.2 µM.

With `CC(C)C[C@H](NC(=O)OCc1ccccc1)C(=O)N[C@H](C(=O)NCC(=O)C=[N+]=[N-])C(C)C` (stereo in doubt), the figures for the inhibition in experiment [1] (50.0 µM) and in experiment [2] were 11.5% and 15.3%, respectively.

Take `CC(C(=O)Nc1cnccc1O)c1ccccc1` (stereo not drawn): the inhibition amounted to 0.187% in experiment [1] (20.0 µM), 0.74% in experiment [1] (50.0 µM) and 0% in experiment [2].

Regarding `NCCn1cc(C(=O)N2CC3(CCC3)c3cc(Br)ccc32)cn1`, the results for the inhibition in experiment [1] (20.0 µM), in experiment [1] (50.0 µM) and in experiment [2] were -2.84%, 7.52% and 0%, respectively.

In the case of `C=CC(=O)NCC(=O)N(Cc1ccccc1)C[C@H](O)c1ccccc1` (stereo in doubt), the figures for the inhibition in experiment [1] (20.0 µM), in experiment [1] (50.0 µM) and in experiment [2] were -0.281%, 0.986% and 0%, respectively.

For `Cc1nc(N)sc1CN1CCN(Cc2cccc(Cl)c2)C1=O`, the figures for the inhibition in experiment [1] (20.0 µM), in experiment [1] (50.0 µM) and in experiment [2] were 5.38%, 35.6% and 0%, respectively.

Consider `CC(NC(=O)CCl)c1cc(F)cc(Cl)c1` (stereo not drawn), for which the results for the inhibition in experiment [1] (20.0 µM), in experiment [1] (50.0 µM) and in experiment [2] were 40.6%, 74.5% and 100%, respectively. In experiment [2], this compound yielded an IC50 of 21 µM.

Consider `COC(=O)c1c(NCCCc2ccccc2)c2cc(F)ccc2[nH]c1=O`, for which the inhibition in experiment [1] (20.0 µM) was determined as 20.5%; in experiment [1] (50.0 µM) it was 7.56%. The concentration for half-maximal inhibition (IC50) in experiment [2] turned out to be 68.6 µM.

As for `O=S(=O)(Cc1nc(-c2ccncc2)no1)Nc1ccc(N2CCCCC2)cc1`, the inhibition in experiment [1] (20.0 µM) was 3.34%; in experiment [1] (50.0 µM), 2.66%; in experiment [2] it was 0%.

With `COc1ccccc1OCCN1C(=O)C(=O)c2cc(Br)cc(C)c21`, the inhibition in experiment [1] (20.0 µM) was -2.64%; in experiment [1] (50.0 µM), -0.707%; in experiment [2], 48.1%.

For the compound `O=C(Nc1cccc(C(F)(F)F)c1)Nc1ccccc1Sc1ncc([N+](=O)[O-])s1`, the inhibition in experiment [1] (20.0 µM) came out at 55.9%; in experiment [1] (50.0 µM) it was 76.3%. For the same compound, the IC50 in experiment [2] is 0.219 µM.

As for `C=CC(=O)N1CC(NCc2c[nH]c3ccc(C#N)cc23)C1`, the inhibition was -2.15% in experiment [1] (20.0 µM), 15.4% in experiment [1] (50.0 µM) and 0% in experiment [2].

For the compound `CS(=O)(=O)N1CCc2ccc(CN3CCN(C(=O)CCl)CC3)cc2C1`, the figures for the inhibition in experiment [1] (20.0 µM), in experiment [1] (50.0 µM) and in experiment [2] were 29.9%, 62.5% and 71.8%, respectively. Further, the 50% inhibitory concentration (IC50) in experiment [2] is 38.4 µM.

Take `C[C@@H]1CS/C(=N\NC(=O)C(=O)C(NC(=O)C2CCCCCC2)C2CCOCC2)N1C` (stereo in doubt): the inhibition in experiment [1] (50.0 µM) worked out at 2.64%; in experiment [2], 21%.

`CC(C)Cn1cc(NC(=O)NCCCN2CCC(C)CC2)c2ccccc2c1=O`: the values for the inhibition in experiment [1] (20.0 µM) and in experiment [1] (50.0 µM) were -1.82% and -1.61%, respectively. The IC50 in experiment [2] amounted to 98.2 µM.

Take `Cn1cc(NC(=O)Nc2ccccn2)c2ccccc2c1=O`: the inhibition was -2.17% in experiment [1] (20.0 µM), -0.727% in experiment [1] (50.0 µM) and 0% in experiment [2].

On to `CN(CCC(N)=O)C(=O)C(=O)N1Cc2ccccc2C(c2ccccc2)C1` (stereo not drawn), for which the values for the inhibition in experiment [1] (20.0 µM), in experiment [1] (50.0 µM) and in experiment [2] were -0.756%, -0.803% and 0%, respectively.

As to `COc1cc(OC)cc(Oc2cccc(CNC(=O)Cn3nnc4ccccc43)c2)c1`, the inhibition was -3.39% in experiment [1] (20.0 µM), 0.116% in experiment [1] (50.0 µM) and 0% in experiment [2].
